Experiment: Displacement of [3H]Ro151788 from GABA-A receptor in Wistar rat cerebellar membrane after 1 hr by liquid scintillation counting
Type: cell membranes, Cerebellum

Ki: 1.3 nM
SMILES: O=C(NCCCF)c1c[nH]c2ccc(Br)cc2c1=O

From ChEMBL document CHEMBL1208702, “Use of 2-[(18)F]fluoroethylazide for the Staudinger ligation - Preparation and characterisation of GABA(A) receptor binding 4-quinolones” (Bioorg Med Chem Lett, 2010)
